According to patent US10875876B2, “Cyclized sulfamoylarylamide derivatives and the use thereof as medicaments for the treatment of hepatitis B” (priority 2015, dated 2020):
Where two headings read alike, the source gives them in different places.

Key:
HBV = assay: anti HBV activity, HepG2.117 cell line, intracellular HBV DNA by realtime PCR; assay type: cell-based; conditions: HepG2.117 cell line (Tet-off), 3 days of treatment, intracellular HBV DNA quantified by realtime PCR, read-out: HBV-AVE-HepG2.117 EC50
In short: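 HepG2.117 cells, a Tet-off line that replicates HBV without doxycycline, were induced and then treated in duplicate with serially diluted compound. After 3 days, intracellular HBV DNA was quantified by real-time PCR with an HBV-specific primer set and probe.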

[1] = Cytotoxicity in HepG2 cells, Resazurin assay; conditions: human, HepG2 cells, TOX-HepG2-4 d CC50 (μM), HepG2 cells incubated for 4 days, viability by Resazurin assay
[2] = Hepatitis B virus, HepG2.117, 72 h

`CC1CCOc2c(cn(C)c2C(=O)Nc2ccc(F)c(F)c2)S(=O)(=O)N1` (stereo not shown) [Compound 21, N-(3,4-difluorophenyl)-3,8-dimethyl-1,1-dioxo-2,3,4,5-tetrahydropyrrolo[3,4-b][1,4,5]oxathiazocine-7-carboxamide] gave an EC50 (HBV; [2]) of 0.15 µM and a CC50 at 4 days [1] of over 25 µM.
With `COCOC(c1ccccn1)C1COc2c(cn(C)c2C(=O)Nc2ccc(F)c(F)c2)S(=O)(=O)N1` (stereo not shown) [Compound 129, N-(3,4-difluorophenyl)-3-[methoxymethoxy(2-pyridyl)methyl]-7-methyl-1,1-dioxo-3,4-dihydro-2H-pyrrolo[3,4-b][1,4,5]oxathiazepine-6-carboxamide] the EC50 (HBV; [2]) was 0.012 µM and the CC50 at 4 days [1] was over 25 µM.
Molecule `Cn1cc2c(c1C(=O)Nc1ccnc(C(F)(F)F)c1)CCC(C(F)(F)F)NS2(=O)=O` (racemic) [Compound 59, 7-methyl-1,1-dioxo-3-(trifluoromethyl)-N-[2-(trifluoromethyl)-4-pyridyl]-2,3,4,5-tetrahydropyrrolo[3,4-f]thiazepine-6-carboxamide] has an EC50 (HBV; [2]) of 0.24 µM and a CC50 at 4 days [1] of over 25 µM.
`CC(C)[C@@H]1COc2c(ccc(F)c2C(=O)Nc2ccc(F)c(C#N)c2)S(=O)(=O)N1` [Compound 49, (3R)—N-(3-cyano-4-fluoro-phenyl)-7-fluoro-3-isopropyl-1,1-dioxo-3,4-dihydro-2H-5,1λ^6,2-benzoxathiazepine-6-carboxamide] showed an EC50 (HBV; [2]) of 0.31 µM and a CC50 at 4 days [1] of over 25 µM.
`CCC(O)[C@H]1COc2c(cn(C)c2C(=O)Nc2ccc(F)c(F)c2)S(=O)(=O)N1` (stereo partly drawn) [Compound 130a, (3R)—N-(3,4-difluorophenyl)-3-(1-hydroxypropyl)-7-methyl-1,1-dioxo-3,4-dihydro-2H-pyrrolo[3,4-b][1,4,5]oxathiazepine-6-carboxamide] showed an EC50 (HBV; [2]) of 0.018 µM and a CC50 at 4 days [1] of over 25 µM.
`Cn1cc2c(c1C(=O)Nc1ccc(F)c(F)c1)OC[C@H](C(C)(C)O)NS2(=O)=O` [Compound 93, (3R)—N-(3,4-difluorophenyl)-3-(1-hydroxy-1-methyl-ethyl)-7-methyl-1,1-dioxo-3,4-dihydro-2H-pyrrolo[3,4-b][1,4,5]oxathiazepine-6-carboxamide] showed an EC50 (HBV; [2]) of 0.012 µM and a CC50 at 4 days [1] of over 25 µM.
In the case of `C[C@H]1CCc2c(cn(C)c2C(=O)Nc2ccnc(Br)c2)S(=O)(=O)N1` (single isomer, unassigned) [Compound 57, (3*S)—N-(2-bromo-4-pyridyl)-3,7-dimethyl-1,1-dioxo-2,3,4,5-tetrahydropyrrolo[3,4-f]thiazepine-6-carboxamide], the EC50 (HBV; [2]) is reported as 0.013 µM and the CC50 at 4 days [1] is reported as over 25 µM.
For `CCC(O)[C@H]1COc2c(cn(C)c2C(=O)Nc2ccc(F)c(C#N)c2)S(=O)(=O)N1` (stereo partly drawn) [Compound 122a, (3R)—N-(3-cyano-4-fluoro-phenyl)-3-(1-hydroxypropyl)-7-methyl-1,1-dioxo-3,4-dihydro-2H-pyrrolo[3,4-b][1,4,5]oxathiazepine-6-carboxamide], the EC50 (HBV; [2]) was 0.012 µM and the CC50 at 4 days [1] was over 25 µM.
`C[C@H]1C=Cc2c(cn(C)c2C(=O)Nc2ccc(F)c(C#N)c2)S(=O)(=O)N1` (single isomer, unassigned) [Compound 32, (*S)—N-(3-cyano-4-fluoro-phenyl)-3,7-dimethyl-1,1-dioxo-2,3-dihydropyrrolo[3,4-f]thiazepine-6-carboxamide] showed an EC50 (HBV; [2]) of 0.003 µM and a CC50 at 4 days [1] of over 25 µM.
Work on `Cn1cc2c(c1C(=O)Nc1ccc(F)c(F)c1)OC[C@H](Cc1cccnc1)NS2(=O)=O` [Compound 38, (3S)—N-(3,4-difluorophenyl)-7-methyl-1,1-dioxo-3-(3-pyridylmethyl)-3,4-dihydro-2H-pyrrolo[3,4-b][1,4,5]oxathiazepine-6-carboxamide] yielded an EC50 (HBV; [2]) of 0.005 µM and a CC50 at 4 days [1] of over 25 µM.
Molecule `Cn1cc2c(c1C(=O)Nc1ccc(F)c(F)c1)OCC(C(O)c1cccnc1)NS2(=O)=O` (stereo not shown) [Compound 95, N-(3,4-difluorophenyl)-3-[hydroxy(3-pyridyl)methyl]-7-methyl-1,1-dioxo-3,4-dihydro-2H-pyrrolo[3,4-b][1,4,5]oxathiazepine-6-carboxamide] has an EC50 (HBV; [2]) of 0.022 µM and a CC50 at 4 days [1] of over 25 µM.
`COC(=O)C1COc2c(cn(C)c2C(=O)Nc2ccc(F)c(F)c2)S(=O)(=O)N1` (stereo not shown) [compound 243] gave an EC50 (HBV; [2]) of over 0.5 µM and a CC50 at 4 days [1] of over 25 µM.
For `Cc1cc(CC2(C)COc3c(cn(C)c3C(=O)Nc3ccc(F)c(C(F)F)c3)S(=O)(=O)N2)n(C)n1` (single isomer, unassigned) [Compound 176a, N-[3-(difluoromethyl)-4-fluoro-phenyl]-3-[(2,5-dimethylpyrazol-3-yl)methyl]-3,7-dimethyl-1,1-dioxo-2,4-dihydropyrrolo[3,4-b][1,4,5]oxathiazepine-6-carboxamide], the EC50 (HBV; [2]) was 0.012 µM and the CC50 at 4 days [1] was over 25 µM.
For `Cc1cc(NC(=O)c2c3c(cn2C)S(=O)(=O)NC(C(C)C)CC3)ccc1F` (stereo not shown) [Compound 109, N-(4-fluoro-3-methyl-phenyl)-3-isopropyl-7-methyl-1,1-dioxo-2,3,4,5-tetrahydropyrrolo[3,4-f]thiazepine-6-carboxamide], the EC50 (HBV; [2]) was 0.003 µM and the CC50 at 4 days [1] was over 25 µM.
For `Cc1cc(CC2(C)COc3c(cn(C)c3C(=O)Nc3ccc(F)c(F)c3)S(=O)(=O)N2)no1` (single isomer, unassigned) [Compound 162a, N-(3,4-difluorophenyl)-3,7-dimethyl-3-[(5-methylisoxazol-3-yl)methyl]-1,1-dioxo-2,4-dihydropyrrolo[3,4-b][1,4,5]oxathiazepine-6-carboxamide], the EC50 (HBV) was 0.033 µM and the CC50 at 4 days [1] was over 25 µM.
`CC(C)[C@H]1COc2c(ccc(F)c2C(=O)Nc2ccc(F)c(C#N)c2)S(=O)(=O)N1` [Compound 45, (3S)—N-(3-cyano-4-fluoro-phenyl)-7-fluoro-3-isopropyl-1,1-dioxo-3,4-dihydro-2H-5,1λ^6,2-benzoxathiazepine-6-carboxamide] showed an EC50 (HBV; [2]) of 0.23 µM and a CC50 at 4 days [1] of over 25 µM.
For `C[C@@H](O)[C@H]1CCc2c(cn(C)c2C(=O)Nc2ccc(F)c(F)c2)S(=O)(=O)N1` [Compound 70, (3R)—N-(3,4-difluorophenyl)-3-[(1R)-1-hydroxyethyl]-7-methyl-1,1-dioxo-2,3,4,5-tetrahydropyrrolo[3,4-f]thiazepine-6-carboxamide], the EC50 (HBV; [2]) was 0.014 µM and the CC50 at 4 days [1] was over 25 µM.
`Cn1ccc(CC2(C)COc3c(cn(C)c3C(=O)Nc3ccnc(C(F)F)c3)S(=O)(=O)N2)n1` (single isomer, unassigned) [Compound 217a, N-[2-(difluoromethyl)-4-pyridyl]-3,7-dimethyl-3-[(1-methylpyrazol-3-yl)methyl]-1,1-dioxo-2,4-dihydropyrrolo[3,4-b][1,4,5]oxathiazepine-6-carboxamide] showed an EC50 (HBV) of 0.025 µM and a CC50 at 4 days [1] of over 25 µM.
In the case of `CC(C)C(O)C1COc2c(cn(C)c2C(=O)Nc2ccc(F)c(C#N)c2)S(=O)(=O)N1` (stereo not shown) [Compound 119a, N-(3-cyano-4-fluoro-phenyl)-3-(1-hydroxy-2-methyl-propyl)-7-methyl-1,1-dioxo-3,4-dihydro-2H-pyrrolo[3,4-b][1,4,5]oxathiazepine-6-carboxamide], the EC50 (HBV; [2]) is reported as 0.011 µM and the CC50 at 4 days [1] is reported as over 25 µM.
`CC1C=Cc2c(cn(C)c2C(=O)Nc2ccc(F)c(F)c2)S(=O)(=O)N1` (single isomer, unassigned) [Compound 7a, N-(3,4-difluorophenyl)-3,7-dimethyl-1,1-dioxo-2,3-dihydropyrrolo-[3,4-f]thiazepine-6-carboxamide] gave an EC50 (HBV) of 0.13 µM and a CC50 at 4 days [1] of over 25 µM.
With `Cn1cc2c(c1C(=O)Nc1ccc(F)c(C#N)c1)CCC(C(C)(F)F)NS2(=O)=O` (stereo not shown) [Compound 118, N-(3-cyano-4-fluoro-phenyl)-3-(1,1-difluoroethyl)-7-methyl-1,1-dioxo-2,3,4,5-tetrahydropyrrolo[3,4-f]thiazepine-6-carboxamide] the EC50 (HBV; [2]) was 0.013 µM and the CC50 at 4 days [1] was over 25 µM.
`Cn1cc2c(c1C(=O)Nc1ccc(F)c(F)c1)OCC(C1CCN(C(=O)OC(C)(C)C)CC1)NS2(=O)=O` (stereo not shown) [Compound 72, tert-butyl 4-[6-[(3,4-difluorophenyl)carbamoyl]-7-methyl-1,1-dioxo-3,4-dihydro-2H-pyrrolo[3,4-b][1,4,5]oxathiazepin-3-yl]piperidine-1-carboxylate] showed an EC50 (HBV; [2]) of 0.05 µM and a CC50 at 4 days [1] of over 25 µM.
`CC(C)C1CCc2c(cn(C)c2C(=O)Nc2ccc(F)c(C(F)F)c2)S(=O)(=O)N1` (stereo not shown) [Compound 86, N-[3-(difluoromethyl)-4-fluoro-phenyl]-3-isopropyl-7-methyl-1,1-dioxo-2,3,4,5-tetrahydropyrrolo[3,4-f]thiazepine-6-carboxamide] showed an EC50 (HBV; [2]) of 0.005 µM and a CC50 at 4 days [1] of over 25 µM.
Molecule `Cn1cc2c(c1C(=O)Nc1cc(F)c(F)c(F)c1)OC[C@H](C(C)(C)O)NS2(=O)=O` [Compound 147, (3R)-3-(1-hydroxy-1-methyl-ethyl)-7-methyl-1,1-dioxo-N-(3,4,5-trifluorophenyl)-3,4-dihydro-2H-pyrrolo[3,4-b][1,4,5]oxathiazepine-6-carboxamide] has an EC50 (HBV; [2]) of 0.013 µM and a CC50 at 4 days [1] of over 25 µM.
In the case of `Cn1cc2c(c1C(=O)Nc1ccc(F)c(F)c1)OCC(C)(Cc1ccc(Cl)nc1)NS2(=O)=O` (stereo not shown) [Compound 197, 3-[(6-chloro-3-pyridyl)methyl]-N-(3,4-difluorophenyl)-3,7-dimethyl-1,1-dioxo-2,4-dihydropyrrolo[3,4-b][1,4,5]oxathiazepine-6-carboxamide], the EC50 (HBV; [2]) is reported as 0.011 µM and the CC50 at 4 days [1] is reported as over 25 µM.
In the case of `C[C@H]1CCc2c(cn(C)c2C(=O)Nc2ccnc(C(F)(F)F)c2)S(=O)(=O)N1` (single isomer, unassigned) [Compound 53, (3*S)-3,7-dimethyl-1,1-dioxo-N-[2-(trifluoromethyl)-4-pyridyl]-2,3,4,5-tetrahydropyrrolo[3,4-f]thiazepine-6-carboxamide], the EC50 (HBV; [2]) is reported as 0.19 µM and the CC50 at 4 days [1] is reported as over 25 µM.
